How the values were obtained:
Format in all cases: toxicity, cell-based
HEK-293T = assay: Incucyte cell viability with HEK293T; settings: human, 10 µM, compound concentration 10 uM
U2OS = assay: Incucyte cell viability with U2OS; settings: human, 10 µM, compound concentration 10 uM
Fibroblast = assay: Incucyte cell viability with human fibroblast; settings: 10 µM, compound concentration 10 uM
[1] = 0 h, replicate number 2, timepoint 0 hours
[2] = 6 h, replicate number 1, timepoint 6 hours
[3] = 6 h, replicate number 2, timepoint 6 hours
[4] = 12 h, replicate number 1, timepoint 12 hours
[5] = 12 h, replicate number 2, timepoint 12 hours
[6] = 18 h, replicate number 1, timepoint 18 hours
[7] = 18 h, replicate number 2, timepoint 18 hours
[8] = 24 h, replicate number 1, timepoint 24 hours
[9] = 0 h, replicate number 1, timepoint 0 hours
[10] = 24 h, replicate number 2, timepoint 24 hours
Also: unitless GR value; below 1 slowed growth and below 0 cell loss.

Row | SMILES | Growth Rate (HEK-293T; [1]) | Growth Rate (HEK-293T; [2]) | Growth Rate (HEK-293T; [4]) | Growth Rate (HEK-293T; [5]) | Growth Rate (HEK-293T; [6]) | Growth Rate (HEK-293T; [7]) | Growth Rate (HEK-293T; [8]) | Growth Rate (U2OS; [9]) | Growth Rate (U2OS; [2]) | Growth Rate (U2OS; [6]) | Growth Rate (Fibroblast; [9]) | Growth Rate (Fibroblast; [1]) | Growth Rate (Fibroblast; [5]) | Growth Rate (HEK-293T; [10]) | Growth Rate (U2OS; [1]) | Growth Rate (U2OS; [4]) | Growth Rate (Fibroblast; [2]) | Growth Rate (U2OS; [7]) | Growth Rate (Fibroblast; [4]) | Growth Rate (Fibroblast; [8]) | further results
1 | O=C(O)CCCCCC[C@H]1C(=O)NC(=O)N1CCC(O)C1CCCCC1 (some centres not stated) | 0.31 | 0.84 | 0.73 | 0.68 | 0.88 | 0.81 | 0.91 | -0.44 | 0.65 | 0.81 | 0.25 | 0.26 | 0.91 | – | – | – | – | – | – | – | Growth Rate (HEK-293T; [3]): 0.93
2 | CN1CCC(c2c[nH]c3ccc(O)cc23)CC1 | 0.25 | – | – | 0.98 | 0.98 | 0.89 | – | 0.81 | – | – | 0.18 | -0.25 | – | 0.89 | 0.6 | 0.97 | 0.11 | – | – | – | –
3 | CCc1nnc(NS(=O)(=O)c2ccc(NC(=S)NC(=O)/C=C/c3ccc(F)cc3)cc2)s1 | 0.59 | 0.64 | 0.53 | – | 0.58 | – | 0.67 | 0.07 | 0.55 | 0.81 | – | -0.01 | 0.53 | 0.73 | -0.11 | 0.77 | – | 0.86 | 0.7 | 0.62 | Growth Rate (U2OS; [8]): 0.86; Growth Rate (Fibroblast; [3]): 0.82; Growth Rate (Fibroblast; [7]): 0.53; Growth Rate (Fibroblast; [10]): 0.61
4 | Oc1c(CN2CCN(c3ccccn3)CC2)cc(Cl)c2cccnc12 | -1 | -0.48 | -0.03 | – | 0.11 | – | 0.17 | 0.03 | 0.19 | -0.04 | – | – | – | – | -0.6 | 0.01 | – | 0.1 | – | 0.65 | Growth Rate (U2OS; [3]): -0.14; Growth Rate (U2OS; [5]): 0.21; Growth Rate (U2OS; [8]): -0.07; Growth Rate (U2OS; [10]): 0.08; Growth Rate (Fibroblast; [10]): 0.89
5 | O=C(O)CCC/C=C\C[C@H]1C(=O)C[C@@H](O)[C@@H]1/C=C/[C@@H](O)CCc1ccccc1 | -0.05 | 0.8 | 0.68 | – | 1 | – | 0.89 | 0.49 | 0.41 | 0.77 | 0.15 | -0.3 | – | – | – | 0.52 | 0 | – | 0.4 | 0.66 | Growth Rate (U2OS; [8]): 0.97; Growth Rate (Fibroblast; [6]): 0.74
6 | O=C(c1cc(C2CC2)on1)N(C1CCCCC1)C1CCCCC1 | 0.08 | 0.27 | 0.55 | 0.56 | 0.64 | 0.68 | 0.74 | 0.64 | 0.89 | – | 0.81 | – | 0.97 | 0.67 | – | 0.7 | -0.36 | – | 0.15 | 0.78 | Growth Rate (U2OS; [3]): 0.71; Growth Rate (U2OS; [10]): 1; Growth Rate (Fibroblast; [6]): 0.82; Growth Rate (Fibroblast; [7]): 0.86; Growth Rate (Fibroblast; [10]): 0.8
7 | Cl.FC(F)(F)c1ccc(N2CCNCC2)nc1Cl | 0.55 | 0.75 | 0.89 | 0.95 | 0.79 | 0.89 | 0.75 | – | 0.77 | 0.93 | 0.87 | 0.43 | – | 0.82 | 0.39 | 0.84 | 0.27 | 0.87 | 0.59 | 0.59 | Growth Rate (HEK-293T; [3]): 0.92; Growth Rate (U2OS; [3]): 0.86; Growth Rate (U2OS; [5]): 0.78; Growth Rate (U2OS; [10]): 0.96; Growth Rate (Fibroblast; [6]): 0.46
